Each structure is given as a SMILES string. “Also recorded” adds a separate entry of the source.

One assay relates to ZO-1 (Tjp1) and Ocln. The assay can be described thus: Intestinal organoids treated with LPS and metabolites: tight junction (TJ) expression, RT-qPCR and immunostaining. In kind it is cell-based, mouse. As for the experimental part:
(§1) Intestinal organoids were isolated as previously described (Das et al., 2015; Pearce et al., 2018). Briefly, crypts were isolated from small intestine of conventional house C57BL/6 male mice (Taconic Laboratories, Hudson, NY) by shaking in isolation buffer (2 mM EDTA in PBS), then, crypts were harvested, processed, and suspended in crypt culture medium (CCM), which consisted of advanced DMEM/F12 (Life Technologies, Carlsbad, CA) supplemented with serum-free B27 (1:50; Life Technologies), N2 (1:100; Life Technologies), N-acetylcysteine (1 mM; Sigma-Aldrich, St. Louis, MO), recombinant murine epithelial growth factor (EGF, 50 ng/ml; Peprotech, Rocky Hill, NJ), Noggin (100 ng/ml; Peprotech), R-Spondin (500 ng/ml; Peprotech), Glutamax-I supplement (1:100; Life Technologies), penicillin/streptomycin (500 μg/ml; Life Technologies), and HEPES ([…]; Life Technologies). Crypts were resuspended in 70% Matrigel (density ˜450 crypts per dome, 2 domes per well in 24-well plate) and allowed to solidify at 37° C. for 20 min. CCM (1.5 mL) was then added to each well. Cultures were incubated in a humidified incubator at 37° C., and CCM was changed daily. Intestinal organoid treatment with LPS and metabolites
(§2) We had 2 series of metabolite-treated organoid experiments, i.e., 1) organoid from conventional C57BL6 mice and 2) Ocln KO and littermate WT control as a gift from Prof. Jerrold Turner (Harvard University). […] Seeding is designated as day 0. On day 3 of culture, the existing media in the wells were completely removed before adding treatments. LPS (1 μg/mL) with or without metabolites, i.e., IPA (0.1 mM) (Li et al., 2021), IAM (200 μM) (Vyhlidalova et al., 2020), MNA (12 ng/ml) (Liu et al., 2015), CARN (20 mM) (Boldyrev et al., 2013) or ASA (1 μM) (Erez et al., 2011) were each added in CCM at known physiological concentrations, incubated for 48 hours, thereafter, organoid was harvested for RNA extraction, and paraformaldehyde fixation for immunostaining.
(§3) Total RNA was extracted from the intestinal organoids using a commercially available kit (RNeasy Microkit; Qiagen, MD, Cat. #74004) following manufacturer's instructions. mRNA samples were converted to cDNA using Bio-Rad's iScript Reverse Transcription Supermix for RT-qPCR (Bio-Rad Laboratories, Hercules, CA, Cat. #1708840). cDNA was then used for RT-qPCR (Mx3000P. Stratagene, La Jolla, CA) to analyze several genes using Maxima SYBR Green qPCR Master Mix (Thermo Fisher Scientific, Waltham, MA) and primers (Integrated DNA Technologies, Coralville, IA). Thermal profile for three-step cycling was 10 min at 95° C. for initial denaturation; then 40 cycles of 15 sec at 95° C. for denaturation, 30 sec at 65° C. for annealing, and 30 sec at 75° C. for extension. Primers used are as follows: β-actin (Actb), forward 5′-[…]-3′ (SEQ ID NO: 5), reverse 5′-[…]-3′ (SEQ ID NO: 6); ZO-1 (Tjp1), forward 5′-[…]-3′ (SEQ ID NO: 7), reverse 5′-[…]-3′ (SEQ ID NO: 8), Ocln, forward 5′-[…]-3′ (SEQ ID NO: 9), reverse 5′-[…]-3′ (SEQ ID NO: 10); Lyz1, forward 5′-ATGGCTACCGTGGTGTCAAG-3′ (SEQ ID NO: 11), reverse 5′-CGGTCTCCACGGTTGTAGTT-3′ (SEQ ID NO: 12); Tff3, forward 5′-TAATGCTGTTGGTGGTCCTG-3′ (SEQ ID NO: 13), reverse 5′-CAGCCACGGTTGTTACACTG-3′ (SEQ ID NO: 14). All samples were normalized to β actin expression. Gene expression levels are depicted as fold change relative to the control group.
(§4) Immunocytochemistry followed earlier work (Pearce et al., 2018). Briefly, organoids were extracted from Matrigel by using cell recovery solution (Corning, Cat. No. 354253), processed then fixed in 4% paraformaldehyde for 15 min and dehydrated with 70% ethanol and kept in 4° C. until embedded in paraffin. On the day of embedding, organoids were gently spun down to a pellet (250 g for 5 min), then the supernatant was removed, the pellet resuspended in agarose and embedded in paraffin. […]
On the technique in general: Quantitative PCR measures a nucleic acid by following its amplification.

Assay [1] has as its system mouse intestinal organoids. The assay can be described thus: Organoid permeability assay with 4 kDa FITC-dextran, LPS with or without metabolites. In kind it is cell-based. Conditions: ex vivo organoids. The method, then:
as §1, §2
Permeability assays followed earlier work (Pearce et al., 2018). Briefly, all media were removed and then organoid were incubated with CCM containing 4 kDa FITC-dextran (Sigma-Aldrich, St. Louis, MO, Cat. #46944) at a final concentration of 1.25 µM for 30 minutes at 37° C. and at 5% CO2. […] A fluorescent microscope (Nikon Eclipse TI, NY) at a 10× magnification was used to observe and capture the fluorescence within the lumen of the organoids. Using the same area as the lumen, three different background samples are measured randomly around the lumen. The three background samples measured are averaged and then subtracted from the measured fluorescence of the lumen. […] The quantification of the fluorescence was conducted using the ImageJ 1.53 (NIH, Bethesda, MD).

In assay [2] the test system is Tff3 and Lyz1 (goblet and Paneth cells). In words: Organoids: goblet and Paneth cell transcripts (Tff3, Lyz1) and cell numbers. In kind it is cell-based, mouse. The note with it: enteroids. As for the experimental part: as §2, §3, §4
The subject of assay [3] is human-derived Caco-2 cells. In words: In vitro transwell screening in Caco-2 cells, barrier disrupted by Clostridium difficile toxin (TEER and FITC-dextran permeability). In kind it is cell-based. The note with it: applied in the basolateral compartment, TOX.
For assay [4], the system named is polarized human Caco-2-BBE cells. The assay can be described thus: Nitric oxide production in polarized Caco-2-BBE cells. In kind it is cell-based. The note with it: 24 h exposure, 5% LGG supernatant or single metabolites.
Procedure: Lastly, NOS2 activity was analyzed in cells treated with an LGG supernatant (orange bar, FIG. 15).
Assay [5] relates to C57BL/6 mice with DSS-induced mild colitis. In words: DSS induced mild colitis treatment with LGG metabolites (2.5% DSS). In kind it is in vivo, mouse. The note with it: metabolite i.p. twice. As for the experimental part: FIG. 13A-13M. IPA requires Ocln to alleviate LPS-induced leaky epithelium. FIG. 13A, experimental design. Organoids were derived from tamoxifen-inducible, intestine-specific Ocln-knockout (KO) mice generated by crossing a floxed Ocln^fl/fl with Villin-CreERT2 mice. FIG. 13B, Representative images and FIG. 13C, quantitative analysis of permeability assay. LPS was added to CCM media (basolateral side) with and without IPA […] and IAM (200 μM) (n=3 mice). *** P<0.001, compared with WT control, †P<0.05 compared with KO-control. FIG. 13D, Representative images of immunofluorescent staining of Ocln in WT control and Ocln KO conventional mice, L=lumen. MNA improves but ASA exacerbates dextran sodium sulfate (DSS)-induced leaky gut. FIG. 13E, experimental design, evaluation in vivo of metabolites (Met). Methylnicotinamide (MNA. […]) and L-argininosuccinate (ASA. 3.6 mg/kg) were administered (i.p.) twice 1-day before and 3 days after DSS treatment p.o. 4 kDa fluorescein isothiocyanate (FITC)-dextran was gavaged 4 h before sacrifice. FIG. 13F, body weight of DSS-treated mice with and without metabolites, FIG. 13G, representative images of Ocln-stained colon sections (green; left panel) and ECad (red; middle). Merged images (yellow; right panel) depict Ocln location in TJ of MNA-treated but not in DSS-only and ASA-treated colon (arrows). Quantitative fluorescent intensity of Ocln (FIG. 13H) and ECad (FIG. 13I) in the TJ, relative to DSS only controls. FIG. 13J, DSS scoring. FIG. 13K, representative H&E images of DSS, DSS+ MNA and DSS+ASA colon sections. FIG. 13L, In vivo permeability as determined by fluorescent intensity of FITC in serum. FIG. 13M, Serum level of interleukin-6.
DSS induced mild colitis treatment with LGG metabolites. To assess in vivo impact of metabolites on gut barrier function, conventional C57BL/6 mice (8 weeks of age) were administered with 2.5% dextran sodium sulfate (DSS) in drinking water to induce mild colitis. Animals were intraperitoneal injected with either PBS vehicle, 30 mg/kg methylnicotinamide chloride, or 3.6 mg/kg argininosuccinic acid dissolved in sterile PBS at Day-1 and Day 4 of the experiment. Body weight was recorded daily. At Day 7, 4 hours before sacrifice and collection of blood, animals were gavaged with 600 mg/kg with 4 kDa FITC-dextran. Blood was collected in 5% EDTA and subsequently centrifuged at 3000 g for 5 minutes for plasma collection. FITC readings were collected by diluting 25 μl of plasma in 75 μl of PBS and analyzed using a Glomax (Promega, GMMTE9032) with Ex490/Em510-570 filter cube module. Serum concentration of interleukin-6 (Cat. No. Biolegend 431304) was also determined. Ileum and colon sections were collected, fixed in 4% paraformaldehyde, processed for embedding in paraffin wax. Pathohistology of intestine was observed by routine H&E staining.

Assay [6] has as its system leaky gut mouse model (DSS colitis). In words: DSS (3%) leaky gut colitis mouse model, metabolites i.p. In kind it is in vivo. Conditions: 3% DSS; i.p. every other day; listed as ASA.
Source text: A moderate amount of DSS (3%) creates a leaky gut model.
FIG. 23A, Analysis of plasma ovalbumin levels after oral ovalbumin gavage in mice treated with exogenous MNA or PBS. […] Analysis of fecal lipocalin levels in mice treated with PBS or MNA with or without DSS. […] Representative histology sections of mice treated with PBS or MNA with or without DSS. FIG. 23D, quantification of mouse histology sections scored for colitis index.
FIG. 24A, Analysis of zonula occludens (Tjp1) and occluding (Ocln) mRNA levels after treatment with PBS or MNA with or without DSS. FIG. 24B, Western blot analysis and quantification of Ocln protein levels after treatment with PBS or MNA with or without DSS. FIG. 24C, Quantified levels of occluding in the ileum (top) and colon (bottom) using immunofluorescence antibody staining.
Administration of DSS induces experimental colitis and disrupts gut barrier in vivo in animal models.
Exogenous MNA administration was assessed by plasma ovalbumin levels after oral ovalbumin gavage—an accepted method to determine permeability of the gut paracellular pathway. […] (FIG. 23B) Histology sections of mice treated with or without DSS and PBS or MNA were also obtained. […] Sections from several mice were also examined by a blinded observer and scored for colitis index.
(FIG. 24B) Using immunofluoresce antibody staining, quantified levels of occludin in the ileum and colon were also analyzed.
For a further assay, the system named is ileal transcriptome. The assay can be described thus: Germ-free mice monocolonized with LGG, trp+ or trp− diet: bulk RNA-sequencing of ileum. In kind it is in vivo, mouse.

Procedure for ileal transcriptome: Gnotobiotic study. After 5 days of acclimatization under GF conditions, two cages of GF mice (n=10) were fed with a trp-free diet and another 2 cages with a trp-sufficient diet. Purified diets were sterilized by double-irradiation (Research Diets, New Brunswick, NJ) then stored in −80° C. Two weeks afterward, five mice from the trp-deficient and five from trp-sufficient were gavaged with LGG and the remaining mice with sterile PBS. Body weight and food intake were recorded weekly. Fecal pellets were collected aseptically one week before, then one and three weeks post inoculation, then stored (−80° C.) for later analysis. Feces were also collected twice a week then analyzed immediately to monitor gnotobiotic status. All mice were sacrificed three weeks post inoculation, then serum, liver, ileum and colon collected.
For LGG colonization, one cage of GF trp− mice and one cage of GF trp+ were orally gavaged with 200 μl of LGG (10^8 CFU/ml) in sterile PBS (LGG trp− and LGG trp+, respectively) while control GF received 200 μl sterile PBS (PBS trp− and PBS trp+).
Total RNA was isolated from mouse ileum then purified with RNeasy Plus universal kit (Qiagen, Hilden, Germany) following manufacturer's instructions. […] For global assessment of mouse RNA levels, total RNA was subjected to two rounds of poly(A) selection using oligo (dT) 25 magnetic beads (New England Biolabs [NEB], Ipswich, MA). Illumina-compatible RNA-seq libraries were constructed using the NEBNext Ultra II RNA library prep with sample purification beads (Cat. No. E7775) and NEB Next Multiplex Oligos for Illumina (dual index primers set 1; Cat. No. E7600) according to the manufacturer's instructions. Poly(A) selection and library quality were assessed using TapeStation 2200 (Agilent Technologies, Santa Clara, CA), and libraries were quantified using Qubit 4.0 fluorometer (Thermo Fisher, Waltham, MA). The prepared libraries were sequenced on an Illumina NextSeq 500 instrument (Illumina, San Diego, CA). CLC Genomics Workbench version 20.0.4 (Qiagen, Venlo, Netherlands) was used for RNA-seq analysis. […]

Consider `NCCC(=O)N[C@@H](Cc1cnc[nH]1)C(=O)O` [Carnosine, carnosine], for which the “gene expression of Ocln” value in the assay on ZO-1 (Tjp1) and Ocln (ex vivo, in the presence of the barrier disruptor) was “increased gene expression of Ocln”. Further, in the assay with ZO-1 (Tjp1) and Ocln (in the presence of LPS (1 μg/mL), 48 hr), the “TJ expression at the protein and mRNA levels” value is listed as “increased TJ expression”. The “disruption of the gut barrier, fluorescence microscopy (FIG. 11M)” value in assay [1] is recorded as “prevented disruption of the gut barrier”. Moreover, the “goblet and Paneth cell transcripts and cell numbers” value in assay [2] was “reduced goblet and Paneth cell transcripts as well as cell numbers”.

For the compound `O=Cc1c[nH]c2ccccc12` [Indole-3-carboxaldehyde], the “TEER, indole metabolites” value in assay [3] is recorded as “more effective when applied in this compartment than in the luminal”.

On to `NC(=O)NCCC[C@H](N)C(=O)O` [citrulline], for which the “NO production (fluorescence intensity)” value in assay [4] is listed as “NO production increases”.

With `NC(=NCCC[C@H](N)C(=O)O)N[C@@H](CC(=O)O)C(=O)O` [L-arginino-succinate, L-argininosuccinic acid], the TJ expression entry with ZO-1 (Tjp1) and Ocln (metabolite alone, 48 hr) is listed as “significantly reduced TJ expression”. Moreover, the “disruption of the gut barrier, fluorescence microscopy (FIG. 11M)” value in assay [1] was “disrupted the gut”. Also, in assay [5], the “DSS-induced leaky gut (overall)” value is “exacerbates”; the “E-cad abundance and localization in colonic epithelial cells” value is given as “appeared dispersed”; the “Ocln expression in colonic epithelium” value was “reduction in Ocln expression”. Further, the body weight entry in assay [5] (vs DSS alone) is “greater tendency to lose weight”. In assay [6], the “body weight loss and recovery in DSS leaky gut model” value was “exacerbated the effects of DSS, and significantly delayed recovery; also recorded: exacerbates weight loss”.

Consider `N[C@@H](Cc1c[nH]c2ccccc12)C(=O)O` [Tryptophan], for which the “number of ileal transcripts affected by dietary trp” value with ileal transcriptome (GF mice) is recorded as 3917; in the assay on ileal transcriptome (LGG mono-associated mice) it was 5315. Moreover, the “number of transcripts affected solely by dietary trp with or without LGG” value with ileal transcriptome (mouse, in vivo) came out at 1496.

In the case of `N=C(N)NCCC[C@H](N)C(=O)O` [Arginine], the “NO production (fluorescence intensity)” value in assay [4] is listed as “NO production increases”.

Values taken from US20240350456A1, “COMPOSITIONS AND METHODS FOR DIAGNOSING AND TREATING INFLAMMATORY CONDITIONS” (RUTGERS, THE STATE UNIVERSITY OF NEW JERSEY, priority 2023, published 2024).
